From US20250099472A1, “RUXOLITINIB FOR THE TREATMENT OF PRURIGO NODULARIS” (INCYTE CORPORATION, priority 2021, published 2025)

What was measured:
[1] = system: skin biopsies from active disease, untreated, prurigo nodularis patients; assay: Ruxolitinib-mediated pharmacological inhibition of PN pathophysiology: proteins secreted by cultured PN skin explants, Procarta Multiplex Immunoassay; assay type: cell-based, human; details: for percent inhibition of IFN-gamma / percent inhibition of IL-2 / percent inhibition of IL-8 (CXCL8) / percent inhibition of IL-10 / percent inhibition of IL-17 alpha (CTLA-8) / percent inhibition of IP-10 (CXCL10): culture supernatant vs DMSO
Procedure: Full-thickness cutaneous skin biopsies were obtained from active disease, untreated, prurigo nodularis patients. Single 4 mm-punch biopsies were obtained from the same lesion for each patient and longitudinally divided into two pieces (see FIG. 1). FIG. 1 depicts a representation of skin punch biopsies used for the JAK1/JAK2 mediated pharmacological inhibition of PN pathophysiology. Biopsies were cultured for 8 days in KBM media+CaCl2 and refreshed every 2-3 days. Ruxolitinib phosphate or DMSO (control) was added to the cell culture media. Conditioned supernatants collected during/prior to media refresh were stored at −80° C. for subsequent analysis. On day 8, cultures were terminated and tissue RNA isolated for subsequent analysis.
Collected supernatants were analyzed to quantify chemokines, cytokines, and growth factors secreted by skin explants in culture and which are involved in inflammation. A total of 51 proteins were detected and quantified in culture supernatants by Procarta Multiplex Immunoassay (Thermo Fisher, Waltham, MA). Supernatants and standards were incubated at 4° C. overnight. Assay plates were read on a Luminex 200 Instrument (Luminex Corporation, Austin, TX). The concentration was extrapolated from the antigen standard curve of each analyte. The percent inhibition determined for each analyte as the difference in protein concentration in cultures with DMSO (CD) versus those with ruxolitinib (CJ), (CD−CJ)/CD (see FIG. 2).

[2] = Solubility of ruxolitinib free base or 1:1 phosphate salt in potential solvents (HPLC); assay type: physicochemical; details: room temperature, 24 hours
Procedure: First, in order to determine the solubility of ruxolitinib (free base) or its 1:1 phosphate salt, approximately 5 mL of a potential solvent was added to approximately 50 mg of the API or its salt at room temperature. The mixtures were suspended and rotated on a wheel. If the mixtures became clear solutions, more solid material was added. The suspensions were then suspended over 24 hours. The samples were filtered through 0.2 micron filters. The liquid portions were collected and diluted with 50/50 water methanol/water. The concentrations of the diluted samples were analyzed by HPLC. When the free base or salt was fairly insoluble, the results are approximate only.

PN patients = details: inhibition of IL-31; cited from earlier work
PN skin = PN skin cultured with nemolizumab; cited from earlier work

## Cc1n[nH]c(C)c1-c1cnn(C2(CC#N)CN(c3cc(F)c(C(=O)N[C@@H](C)C(F)(F)F)cc3F)C2)c1 [4-[3-(cyanomethyl)-3-(3′,5′-dimethyl-1H,1′H-4,4′-bipyrazol-1-yl)azetidin-1-yl]-2,5-difluoro-N-[(1S)-2,2,2-trifluoro-1-methylethyl]benzamide]
[1]; 48 hours, same assays
  percent inhibition of IL-5: 20.25%
  percent inhibition of IL-22: 11.16%

## N#CC[C@H](C1CCCC1)n1cc(-c2ncnc3[nH]ccc23)cn1 [ruxolitinib]
[1]; 48 hr
  percent inhibition of IFN-gamma: 5.0%
  percent inhibition of IL-2: 17.8%
  percent inhibition of IL-8 (CXCL8): 13.7%
  percent inhibition of IL-10: 36.2%
  percent inhibition of IL-17 alpha (CTLA-8): 63.9%
  percent inhibition of IP-10 (CXCL10): 9.7%
[1]; 96 hr
  percent inhibition of IFN-gamma: 11.6%
  percent inhibition of IL-2: 16.6%
  percent inhibition of IL-8 (CXCL8): ** (no measureable inhibition)
  percent inhibition of IL-10: 39.9%
  percent inhibition of IL-17 alpha (CTLA-8): 57.6%
  percent inhibition of IP-10 (CXCL10): 60.3%
[2]; C12-15 alcohol benzoate, approximate, listed as Free Base
  Solubility: 150 µg/mL
[2]; Caprylic triglyceride, approximate, listed as Free Base
  Solubility: 150 µg/mL
[2]; Dimethicone, approximate, listed as Free Base
  Solubility: 150 µg/mL
[2]; Isopropanol, listed as Free Base
  Solubility: 450 µg/mL
[2]; Isopropyl myristate, approximate
  Solubility: 80 µg/mL
[2]; Isosorbide dimethyl ether, listed as Free Base
  Solubility: 300 µg/mL
[2]; Mineral oil, approximate
  Solubility: 80 µg/mL
[2]; Olelyl alcohol, approximate, listed as Free Base
  Solubility: 80 µg/mL
[2]; Propylene glycol, listed as Free Base
  Solubility: 18200 µg/mL
[2]; Water/glycerin/trolamine (40/40/20)
  Solubility: 13600 µg/mL

B1: nemolizumab: an IL-31 inhibitor; anti-IL-31 antibody (antibody, chains of the INN, looked up)
heavy: QVQLVQSGAEVKKPGASVKVSCKASGYTFTGYIMNWVRQAPGQGLEWMGLINPYNGGTDYNPQFQDRVTITADKSTSTAYMELSSLRSEDTAVYYCARDGYDDGPYTLETWGQGTLVTVSSASTKGPSVFPLAPSSKSTSGGTAALGCLVKDYFPEPVTVSWNSGALTSGVHTFPAVLQSSGLYSLSSVVTVPSSNFGTQTYTCNVDHKPSNTKVDKTVERKSCVECPPCPAPPVAGPSVFLFPPKPKDTLMISRTPEVTCVVVDVSQEDPEVQFNWYVDGVEVHNAKTKPREEQFNSTFRVVSVLTVVHQDWLNGKEYKCKVSNKGLPAPIEKTISKTKGQPREPQVYTLPPSQEEMTKNQVSLTCLVKGFYPSDIAVEWESNGQPENNYKTTPPMLDSDGSFFLYSKLTVDKSRWQEGNVFSCSVMHEALHNHYTQKSLSLSP
light: DIQMTQSPSSLSASVGDRVTITCQASEDIYSFVAWYQQKPGKAPKLLIYNAQTEAQGVPSRFSGSGSGTDFTLTISSLQPEDFATYYCQHHYDSPLTFGGGTKVEIKRTVAAPSVFIFPPSDEQLKSGTASVVCLLNNFYPREAKVQWKVDNALQSGNSQESVTEQDSKDSTYSLSSTLTLSKADYEKHKVYACEVTHQGLSSPVTKSFNRGEC
PN patients
  pruritus and skin lesions in PN patients: improvement in pruritus and skin lesions
PN skin
  IL-17 levels in lesional skin: reduction in IL-17 levels
